# Assays:
# [1] = tested on: lymph node cells; assay: Proliferation of lymph node cells to MOG 35-55 peptide, [3H]thymidine incorporation; type: cell-based, C57BL/6 (B6) mice; conditions: 25 μg/ml MOG 35-55 peptide; equimolar concentrations of both compounds; vs MOG 35-55 peptide alone
# [2] = tested on: Splenocytes or lymphocytes; assay: Proliferation of splenocytes or lymphocytes from treated immunized mice in response to MOG 35-55 peptide; type: in vivo, B6 mice; conditions: mice treated with 20 mg/kg/day, compared with vehicle
# [3] = tested on: EAE in C57BL/6 (B6) female mice; assay: Clinical course of EAE, treatment begun prior to disease onset (day 10); type: in vivo, C57BL/6 (B6) mice; conditions: for mean total EAE score: vehicle control 99
# Method: EAE was induced in C57BL/6 (B6) female mice by immunization with 200 μg of MOG 35-55 peptide in complete Freund's adjuvant containing 400 μg of Mycobacterium tuberculosis per mouse by subcutaneous injection. Pertussis toxin was administered intraperitoneally at day 0 (25 ng per mouse) and day 2 (66 ng per mouse) after immunization. […] Mice were examined for signs of EAE daily, blinded to treatment status. EAE was scored by using a 9 point scale (0, no paralysis; 1, limp tail with minimal hind limb weakness; 2, mild hind limb weakness; 3, moderate hind limb weakness; 4, moderately severe hind limb weakness; 5, severe hind limb weakness; 6, complete hind limb paralysis; 7, hind limb paralysis with mild forelimb weakness; 8, hind limb paralysis with moderate forelimb weakness; and 9, hind limb paralysis with severe forelimb weakness).
# [4] = tested on: EAE in B6 mice; assay: Reversal of paralysis in EAE, treatment begun day 15 after onset; type: in vivo; conditions: 20 mg/kg daily from day 15
# Description: EAE was induced in B6 mice as described in Example 2. Mice developed signs of EAE 10-12 days following immunization with MOG 35-55 peptide. […] Mice were scored daily for EAE, blinded to treatment status.
# [5] = tested on: Mice with induced EAE; assay: White matter tissue damage in thoracic spinal cord of EAE mice (toluidine blue); type: in vivo; conditions: vs vehicle
# Method: Mice with induced EAE were deeply anesthetized with isoflurane, heparinized, and perfused with 5% gluteraldehyde, and spinal cords were dissected as described in Masliah et al., Am. J. Pathol. 142:871-882, 1993. Tissue samples were post-fixed with 1% osmium. Semithin sections (0.5 μm) were stained with toluidine blue and photographed at 25× magnification. The percentage of the spinal cord showing damage was determined in the ventrolateral and dorsal thoracic cord. Photomontages (final magnification 100×) of the entire spinal cord and areas containing damaged fibers were measured using a SummaSketch 111 (Summagraphics, Fairfield, Conn.) digitizing tablet and BIOQUANT Classic 95 software (R & M Biometrics, Nashville, Tenn.). Measurements were taken of the total area (damaged and nondamaged) and the cumulative percentage area of lesions was calculated.
# [6] = tested on: Mice with induced EAE; assay: Phosphorylated neurofilament (NF-P) immunostaining of spinal cord of EAE mice, dose groups; type: in vivo; conditions: vehicle 24%
# Method: Mice with induced EAE were perfused with 4% paraformaldehyde and 1- to 2-mm lengths of spinal cord were processed for sectioning as described in Masliah et al. Spinal cord sections were blocked and stained with anti-phosphorylated NF, SMI312 (Sternberger Monoclonals, Lutherville, Md.). Following incubation in goat anti-mouse secondary antibody and incubation in mouse peroxidase-antiperoxidase, immunoreactivity was visualized with 0.05% diaminobenzidine tetrahydrochloride/0.01% hydrogen peroxide, examined by light microscopy and photographed and analyzed as described for assessing white matter tissue damage. Statistical significance was determined by using one-way ANOVA followed by Newman-Keuls multiple comparisons tests (WINKS 4.62 professional edition; Texasoft, Dallas, Tex.); significance was defined as p<0.05.
# [7] = tested on: EAE in B6 mice; assay: Repair of injured axons: NF-P immunostaining at day 40, treatment from day 15; type: in vivo
# Description: B6 mice were immunized with MOG 35-55 peptide as described in Example 2. […] The two treatment groups were perfused on day 40 post-immunization and sections of their spinal cords were immunostained for NF-P.
# [8] = tested on: EAE in C57BL/6 mice; assay: CD4 and CD11b immunostaining of spinal cord of EAE mice; type: in vivo; conditions: 20 mg/kg/day s.c. from day 15, day 34 to 40
# Description: EAE was induced in C57BL/6 mice by immunization with […] as described in Example 2. […] Mice received therapy by daily subcutaneous injection. Mice were euthanized at day 34 to 40 post-immunization by perfusion with 4% paraformaldehyde and spinal cords were removed for immunohistochemical staining and quantitative analysis. Spinal cord sections were stained with anti-CD4 (lymphocyte) or anti-CD11b (monocyte/macrophage lineage) antibodies and quantified following image capture on a laser scanning confocal microscope.
# [9] = biological target: CypA (Homo sapiens, UniProt P62937); conditions: see U.S. Pat. No. 6,927,208 and WO 2006/038088; cited from earlier work
# [10] = 20 mg/kg, vs vehicle treated mice
# CypA, sequence (P62937 whole entry, species assumed): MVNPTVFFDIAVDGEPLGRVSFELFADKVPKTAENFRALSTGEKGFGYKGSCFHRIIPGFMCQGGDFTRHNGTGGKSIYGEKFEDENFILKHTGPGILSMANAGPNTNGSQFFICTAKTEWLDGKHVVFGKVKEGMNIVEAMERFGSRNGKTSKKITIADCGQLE
substance,measurement,setting,value
"Cyclo[L-alanyl-D-alanyl-N-methyl-L-leucyl-N-methyl-L-leucyl-N-methyl-L-valyl-(2S,3R,4R,6E)-3-hydroxy-4-methyl-2-methylamino-6-octenoyl-(2S)-2-aminobutanoyl-N-methyl-D-alanyl-N-ethyl-L-valyl-L-valyl-N-methyl-L-leucyl] [[D-MeAla]^3-[EtVal]^4-CsA]","proliferative capacity of lymph node cells, MOG 35-55 peptide stimulated",[1],did not significantly alter
same,proliferation of splenocytes or lymphocytes in response to MOG 35-55 peptide,[2],no differences in proliferation
same,mean total EAE score,[3]; 1 mg/kg/day from day 10,53
same,mean total EAE score,[3]; 5 mg/kg/day from day 10,25
same,onset of disease,[3]; [10],significantly delayed
same,severity of peak disease,[3]; [10],reduced
same,mean total EAE score,[3]; 20 mg/kg/day from day 10,12
same,recovery over the course of the experiment,"[3]; all doses (1, 5, 20 mg/kg), in contrast to vehicle",completely recovered
same,clinical course of paralysis,[4],"progressive improvement, eventually returning to nearly normal"
same,mean total EAE score,"[4]; vehicle 116, p=0.0006",75
same,"reduction of tissue damage, dorsal thoracic cord",[5]; 1 mg/kg/day,50%
same,"reduction of tissue damage, ventrolateral thoracic cord",[5]; 1 mg/kg/day,40%
same,"reduction of tissue damage, dorsal thoracic cord",[5]; 5 mg/kg/day,69%
same,"reduction of tissue damage, ventrolateral thoracic cord",[5]; 5 mg/kg/day,76%
same,"reduction of tissue damage, dorsal thoracic cord",[5]; 20 mg/kg/day,81%
same,"reduction of tissue damage, ventrolateral thoracic cord",[5]; 20 mg/kg/day,86%
same,"mean area of loss of NF-P staining, lateral/ventral thoracic spinal cord",[6]; 1 mg/kg,14.5%
same,"mean area of loss of NF-P staining, lateral/ventral thoracic spinal cord",[6]; 5 mg/kg,3%
same,"mean area of loss of NF-P staining, lateral/ventral thoracic spinal cord",[6]; 20 mg/kg,1.5%
same,"reduced NF-P staining, share of dorsal spinal cord","[7]; 20 mg/kg daily from day 15, read at day 40, day 15 untreated 9%, vehicle 4.7%",1.7%
same,"reduced NF-P staining, share of ventrolateral spinal cord","[7]; 20 mg/kg daily from day 15, read at day 40, day 15 untreated 14%, vehicle 20%",7%
same,improvement in expression of NF-P within axons,"[7]; 20 mg/kg daily, day 40 vs day 15",≥ 50%
same,"percentage area stained by anti-CD4, spinal cord","[8]; no treatment 0.86%, vehicle 0.74%, not significant",0.61%
same,"CD11b cells, percentage of white matter","[8]; no treatment 6.64%, vehicle 5.83%, p=0.05 vs vehicle",3.94%
[EtPhe(4-CH2PO(OMe)2)]^4-CsA,apparent Ki for CypA activity compared with CsA,[9],less than the Ki of CsA

# Reference: patent US8394763B2, “Cyclic undecapeptides and derivatives as multiple sclerosis therapies” (Oregon Health & Science University, priority 2007, dated 2013)
